Assays:
Assay type in all cases: in vivo
[1] = tested on: Blumeria graminis f. sp. tritici (Erysiphe graminis f. sp. tritici); test: Blumeria graminis f. sp. tritici / wheat / leaf disc preventative (powdery mildew on wheat); conditions: foliar, wheat leaf segments cv. Kanzler, inoculated 1 day after application, assessed 6-8 days after application, read-out: control of Blumeria graminis f. sp. tritici (percent disease control compared to untreated)
Method: Blumeria graminis f. sp. tritici (Erysiphe graminis f. sp. tritici)/Wheat/Leaf Disc Preventative (Powdery Mildew on Wheat) Wheat leaf segments cv. Kanzler are placed on agar in a multiwell plate (24-well format) and sprayed with the formulated test compound diluted in water. The leaf disks are inoculated by shaking powdery mildew infected plants above the test plates 1 day after application. The inoculated leaf disks are incubated at 20° C. and 60% rh under a light regime of 24 h darkness followed by 12 h light/12 h darkness in a climate chamber and the activity of a compound is assessed as percent disease control compared to untreated when an appropriate level of disease damage appears on untreated check leaf segments (6-8 days after application).

Phakopsora pachyrhizi = Phakopsora pachyrhizi / soybean / preventative (soybean rust); conditions: foliar, soybean leaf disks, inoculated one day after application, assessed 12-14 days after application, read-out: control of Phakopsora pachyrhizi (percent disease control compared to untreated)
Method: Phakopsora pachyrhizi/Soybean/Preventative (Soybean Rust) Soybean leaf disks are placed on water agar in multiwell plates (24-well format) and sprayed with the formulated test compound diluted in water. One day after application leaf discs are inoculated by spraying a spore suspension on the lower leaf surface. After an incubation period in a climate cabinet of 24-36 hours in darkness at 20° C. and 75% rh leaf disc are kept at 20° C. with 12 h light/day and 75% rh. The activity of a compound is assessed as percent disease control compared to untreated when an appropriate level of disease damage appears in untreated check leaf disks (12-14 days after application).

[2] = tested on: Puccinia recondita f. sp. tritici; test: Puccinia recondita f. sp. tritici / wheat / leaf disc curative (brown rust); conditions: foliar, wheat leaf segments cv. Kanzler, compound applied 1 day after inoculation, assessed 6-8 days after application, read-out: control of Puccinia recondita f. sp. tritici (percent disease control compared to untreated)
Method: Puccinia recondita f. Sp. Tritici/Wheat/Leaf Disc Curative (Brown Rust) Wheat leaf segments cv. Kanzler are placed on agar in multiwell plates (24-well format). The leaf segments are inoculated with a spore suspension of the fungus. Plates are stored in darkness at 19° C. and 75% rh. The formulated test compound diluted in water is applied 1 day after inoculation. The leaf segments are incubated at 19° C. and 75% rh under a light regime of 12 h light/12 h darkness in a climate cabinet and the activity of a compound is assessed as percent disease control compared to untreated when an appropriate level of disease damage appears in untreated check leaf segments (6-8 days after application).

[3] = tested on: Puccinia recondita f. sp. tritici; test: Puccinia recondita f. sp. tritici / wheat / leaf disc preventative (brown rust); conditions: foliar, wheat leaf segments cv. Kanzler, inoculated 1 day after application, assessed 7-9 days after application, read-out: control of Puccinia recondita f. sp. tritici (percent disease control compared to untreated)
Method: Puccinia recondita f. Sp. Tritici/Wheat/Leaf Disc Preventative (Brown Rust) Wheat leaf segments cv. Kanzler are placed on agar in multiwell plates (24-well format) and sprayed with the formulated test compound diluted in water. The leaf disks are inoculated with a spore suspension of the fungus 1 day after application. The inoculated leaf segments are incubated at 19° C. and 75% rh under a light regime of 12 h light/12 h darkness in a climate cabinet and the activity of a compound is assessed as percent disease control compared to untreated when an appropriate level of disease damage appears in untreated check leaf segments (7-9 days after application).

Measured: pest or weed control at 200 ppm

CCN(C)/C=N/c1cc(OC)c(C(O)(CCOCc2ccccc2)C(F)(F)F)cc1C (stereo not shown) [E.051, N′-[4-[3-benzyloxy-1-hydroxy-1-(trifluoromethyl)propyl]-5-methoxy-2-methyl-phenyl]-N-ethyl-N-methyl-formamidine]
≥ 80%: all assays above

CCN(C)/C=N/c1cc(OC)c(C(O)(COC2CCC(C)CC2)C(F)(F)F)cc1C (stereo not shown) [E.042, N-ethyl-N′-[5-methoxy-2-methyl-4-[2,2,2-trifluoro-1-hydroxy-1-[(4-methylcyclohexoxy)methyl]ethyl]phenyl]-N-methyl-formamidine]
≥ 80%: all assays above

CCN(C)/C=N/c1cc(OC)c(C(O)(C2CCC(OC(C)C)CC2)C(F)(F)F)cc1C (stereo not shown) [E.078, N-ethyl-N′-[5-methoxy-2-methyl-4-[2,2,2-trifluoro-1-hydroxy-1-(4-isopropoxycyclohexyl)ethyl]phenyl]-N-methyl-formamidine]
≥ 80%: all assays above

CCCOC1CCC(C(O)(c2cc(C)c(/N=C/N(C)CC)cc2OC)C(F)(F)F)CC1 (stereo not shown) [E.079, N-ethyl-N′-[5-methoxy-2-methyl-4-[2,2,2-trifluoro-1-hydroxy-1-(4-propoxycyclohexyl)ethyl]phenyl]-N-methyl-formamidine]
≥ 80%: all assays above

CCN(C)/C=N/c1cc(OC)c(C(O)(CCOc2ccc(F)cc2)C(F)(F)F)cc1C (stereo not shown) [E.053, N-ethyl-N′-[4-[3-(4-fluorophenoxy)-1-hydroxy-1-(trifluoromethyl)propyl]-5-methoxy-2-methyl-phenyl]-N-methyl-formamidine]
≥ 80%: all assays above

CCN(C)/C=N/c1cc(OC)c(C(O)(COC2CC(C)CC(C)C2)C(F)(F)F)cc1C (stereo not shown) [E.006, N′-[4-[1-[(3,5-dimethylcyclohexoxy)methyl]-2,2,2-trifluoro-1-hydroxy-ethyl]-5-methoxy-2-methyl-phenyl]-N-ethyl-N-methyl-formamidine]
≥ 80%: all assays above

CCN(C)/C=N/c1cc(OC)c(C(O)(CSc2ccc(F)cc2)C(F)(F)F)cc1C (stereo not shown) [E.068, N-ethyl-N′-[5-methoxy-2-methyl-4-[2,2,2-trifluoro-1-[(4-fluorophenyl)sulfanylmethyl]-1-hydroxy-ethyl]phenyl]-N-methyl-formamidine]
≥ 80%: all assays above

C#CCOCCC(O)(c1cc(C)c(/N=C/N(C)CC)cc1OC)C(F)(F)F (stereo not shown) [E.050, N-ethyl-N′-[4-[1-hydroxy-3-prop-2-ynoxy-1-(trifluoromethyl)propyl]-5-methoxy-2-methyl-phenyl]-N-methyl-formamidine]
≥ 80%: all assays above

CCN(C)/C=N/c1cc(OC)c(C(O)(COCC(C)C)C(F)(F)F)cc1C (stereo not shown) [E.046, N-ethyl-N′-[5-methoxy-2-methyl-4-[2,2,2-trifluoro-1-hydroxy-1-(isobutoxymethyl)ethyl]phenyl]-N-methyl-formamidine]
≥ 80%: all assays above

CC#CCOCC(O)(c1cc(C)c(/N=C/N(C)CC)cc1OC)C(F)(F)F (stereo not shown) [E.040, N′-[4-[1-(but-2-ynoxymethyl)-2,2,2-trifluoro-1-hydroxy-ethyl]-5-methoxy-2-methyl-phenyl]-N-ethyl-N-methyl-formamidine]
≥ 80%: all assays above

CCN(C)/C=N/c1cc(OC)c(C(O)(CSCc2ccccc2)C(F)(F)F)cc1C (stereo not shown) [E.069, N′-[4-[1-(benzylsulfanylmethyl)-2,2,2-trifluoro-1-hydroxy-ethyl]-5-methoxy-2-methyl-phenyl]-N-ethyl-N-methyl-formamidine]
≥ 80%: all assays above

CCN(C)/C=N/c1cc(OC)c(C(O)(C2CCOCC2)C(F)(F)F)cc1C (stereo not shown) [E.055, N-ethyl-N′-[5-methoxy-2-methyl-4-(2,2,2-trifluoro-1-hydroxy-1-tetrahydropyran-4-yl-ethyl)phenyl]-N-methyl-formamidine]
≥ 80%: all assays above

CCOCC(O)(c1cc(C)c(/N=C/N(C)CC)cc1OC)C(F)(F)F (stereo not shown) [E.002, N′-[4-[1-(ethoxymethyl)-2,2,2-trifluoro-1-hydroxy-ethyl]-5-methoxy-2-methyl-phenyl]-N-ethyl-N-methyl-formamidine]
≥ 80%: all assays above

CCCOCC(O)(c1cc(C)c(/N=C/N(C)CC)cc1OC)C(F)(F)F (stereo not shown) [E.014, N-ethyl-N′-[5-methoxy-2-methyl-4-[2,2,2-trifluoro-1-hydroxy-1-(propoxymethyl)ethyl]phenyl]-N-methyl-formamidine]
≥ 80%: all assays above

CCO/N=C(\C)CC(O)(c1cc(C)c(/N=C/N(C)CC)cc1OC)C(F)(F)F (stereo not shown) [E.057, N′-[4-[(3E)-3-ethoxyimino-1-hydroxy-1-(trifluoromethyl)butyl]-5-methoxy-2-methyl-phenyl]-N-ethyl-N-methyl-formamidine]
≥ 80%: all assays above

CCCCOCC(O)(c1cc(C)c(/N=C/N(C)CC)cc1OC)C(F)(F)F (stereo not shown) [E.013, N′-[4-[1-(butoxymethyl)-2,2,2-trifluoro-1-hydroxy-ethyl]-5-methoxy-2-methyl-phenyl]-N-ethyl-N-methyl-formamidine]
≥ 80%: all assays above

CCN(C)/C=N/c1cc(OC)c(C(O)(CCOc2ccccc2)C(F)(F)F)cc1C (stereo not shown) [E.054, N-ethyl-N′-[4-[1-hydroxy-3-phenoxy-1-(trifluoromethyl)propyl]-5-methoxy-2-methyl-phenyl]-N-methyl-formamidine]
≥ 80%: all assays above

CCCOCCC(O)(c1cc(C)c(/N=C/N(C)CC)cc1OC)C(F)(F)F (stereo not shown) [E.052, N-ethyl-N′-[4-[1-hydroxy-3-propoxy-1-(trifluoromethyl)propyl]-5-methoxy-2-methyl-phenyl]-N-methyl-formamidine]
≥ 80%: all assays above

CCN(C)/C=N/c1cc(OC)c(C(O)(COC2CCCCC2)C(F)(F)F)cc1C (stereo not shown) [E.039, N′-[4-[1-(cyclohexoxymethyl)-2,2,2-trifluoro-1-hydroxy-ethyl]-5-methoxy-2-methyl-phenyl]-N-ethyl-N-methyl-formamidine]
≥ 80%: all assays above

Source: US10925283B2, “Microbiocidal phenylamidine derivatives” (SYNGENTA PARTICIPATIONS AG, priority 2016, dated 2021)
